Reference: patent US10485874B2, “Hyaluronic acid modified by sphingosine-1-phosphoric acid” (priority 2014, dated 2019)

How the values were obtained:
serum ALT = test: Rat total liver ischemia/reperfusion model: serum ALT (liver function); type: in vivo, Sprague-Dawley rats; settings: 100 μg/kg in terms of S1P via tail vein 10 min before 20 min total liver ischemia
Description: (§1) Male Sprague-Dawley (hereinbelow, SD) rats, 200 to 250 g, were obtained from CLEA Japan, Inc. (Tokyo, Japan). Four groups of SD rats were studied.
(§2) A study was conducted for a methanol-administration group, where methanol was the solvent for S1P (the content of administration:methanol (50 μl)+3% BSA (150 μl), 200 μl in total), a HA-administration group (the content of administration: 8 kDa HA dissolved in methanol:ultrapure water=1:3 at 0.32564 g/l, 200 μl in total), an S1P-administration group (the content of administration: 100 μg/kg in terms of the dose of S1P, S1P (50 μl)+3% BSA (150 μl), 200 μl in total), a HA-S1P-administration group (the content of administration: 100 μg/kg in terms of the dose of S1P, the HA-S1P formulation prepared at Hokkaido University was dissolved in methanol:ultrapure water=1:3 at 0.358 g/l, 200 μl in total).
Each agent was injected into the tail vein of rats. Ten minutes after the injection, the hepatic artery, portal vein, and bile duct were occluded at once with microclips for 20 minutes. Upon completion of 20 minutes of total liver ischemia, the occlusion was released. For pathological examination, liver tissues were removed from 10 to 15 rats in each group 120 minutes after reperfusion. Also, blood was collected immediately before the injection of the agents and 30 minutes, 60 minutes, and 120 minutes after reperfusion.
In order to evaluate the injury of liver parenchyma, the serum ALT value was measured with an autoanalyzer (FUJI DRI-CHEM 7000V, Fujifilm, Tokyo, Japan).
Statistical analysis was conducted using the Kruskal Wallis H-test and the Mann-Whitney U test with Bonferroni correction as a post hoc test. Also, p< 0.05 was accepted to be indicative of statistical significance.
Using 200 to 250 g SD rats, four experimental groups (A) to (D) were prepared. […]

TUNEL-positive cells = test: Rat liver ischemia/reperfusion model: TUNEL staining of liver (apoptosis-positive cells); type: in vivo, Sprague-Dawley rats
Description: as §1, §2
Each agent was injected into the tail vein of rats. Ten minutes after the injection, the hepatic artery, portal vein, and bile duct were occluded at once with microclips for 20 minutes. […]
Using DeadEnd® Colorimetric TUNEL System (G7360) supplied by Promega KK, apoptosis-positive cells were immunohistochemically detected. The tissue sections of each group were evaluated. The number of TUNEL-positive cells and the total number of hepatocytes were counted in 10 randomly selected high-power fields (400×) focusing on the portal vein. […]

sinusoid structure = test: Rat liver ischemia/reperfusion model: HE staining, pathological evaluation of liver; type: in vivo, Sprague-Dawley rats; settings: liver tissue 120 minutes after reperfusion; 200× field
Description: as §1, §2
Each agent was injected into the tail vein of rats. Ten minutes after the injection, the hepatic artery, portal vein, and bile duct were occluded at once with microclips for 20 minutes. Upon completion of 20 minutes of total liver ischemia, the occlusion was released. […]
The liver tissues were fixed in 10% buffered formalin, and then embedded in paraffin, followed by staining with hematoxylin and eosin. The tissue sections of each group were evaluated. […]

HO-1 = test: Rat liver ischemia/reperfusion model: Western blot of HO-1 in liver tissue; type: in vivo, Sprague-Dawley rats; settings: liver tissue 120 minutes after reperfusion
Description: as §1, §2
(§3) Each agent was injected into the tail vein of rats. Ten minutes after the injection, the hepatic artery, portal vein, and bile duct were occluded at once with microclips for 20 minutes. Upon completion of 20 minutes of total liver ischemia, the occlusion was released. For pathological examination, liver tissues were removed from 10 to 15 rats in each group 120 minutes after reperfusion. Also, blood was collected immediately before the injection of the agents and 30 minutes, 60 minutes, and 120 minutes after reperfusion. […]

[1] = Accumulation of S1P in the liver by Western blot; type: in vivo, rat; settings: Western blot with anti-S1P antibody; versus the S1P only sample
Description: The expression of S1P in the liver tissues was confirmed by Western blot in accordance with the following method.
The rat liver tissues stored at −80° C. were homogenized in a buffer prepared from various reagents (150 mmol/L NaCl, 50 mM Tris-Cl, 1% NP-40, and a protease inhibitor). The resulting samples were centrifuged and the supernatants were collected for analysis. The samples thus obtained were separated using 10% SDS-PAGE gel and transferred to nitrocellulose membranes (Millipore, Bedford, Mass.). As the primary antibody, Anti-S1P antibody (ab140592) (1:1000, rabbit polyclonal, Abcam, Cambridge, UK) was used. As the secondary antibody, Anti-rabbit IgG, HRP-linked antibody (#7074S) (1:1000, Cell Signalling Technology, Beverley, Mass., USA) was used.

cleaved caspase 3 = test: Rat liver ischemia/reperfusion model: Western blot of cleaved caspase 3 in liver tissue; type: in vivo, Sprague-Dawley rats; settings: liver tissue 120 minutes after reperfusion
Description: as §1, §2, §3

[2] = system: liver sinusoidal endothelial cells; test: Rat liver ischemia/reperfusion model: electron microscopic evaluation of the microstructure of liver; type: in vivo, Sprague-Dawley rats; settings: liver excised 120 minutes after reperfusion
Description: as §1, §2
as §3, with “reperfusion.” for “reperfusion. Also, blood was collected immediately before the injection of the agents and 30 minutes, 60 minutes, and 120 minutes after reperfusion.”
The liver sinusoidal endothelial cells after ischemia/reperfusion were evaluated with an electron microscopy. […]

**Q.** Which “serum ALT value” (serum ALT; 30 minutes after reperfusion, versus vehicle and S1P groups) does the source give for “hyaluronic acid modified with sphingosine-1-phosphate [HA-S1P]” here?
**A.** The value was “significantly lower”.

**Q.** And the “serum ALT value” (serum ALT; 60 minutes after reperfusion, versus vehicle, HA and S1P groups)?
**A.** The value was “significantly lower”.

**Q.** And the “serum ALT value” (serum ALT; 120 minutes after reperfusion, versus HA group)?
**A.** Its value is “significantly lower”.

**Q.** And the “percentage of TUNEL-positive cells (TUNEL-positive cells/total number of hepatocytes)” value (TUNEL-positive cells; 400× fields centering around Zone 1, 10 fields per sample, 120 minutes after reperfusion)?
**A.** The value was “significantly low”.

**Q.** What about the “TUNEL staining, positive cells” value (TUNEL-positive cells; liver tissue 120 minutes after reperfusion) of the same substance?
**A.** The value was “positive cells were almost unobserved”.

**Q.** What about the “sinusoid structure (HE staining)” value (sinusoid structure) of the same substance?
**A.** The value was “sinusoid structure was maintained”.

**Q.** And the “expression of HO-1” value (HO-1)?
**A.** The value was “increased”.

**Q.** What about the “expression of S1P in the liver tissues” value [1] of the same substance?
**A.** Its value is “higher”.

**Q.** What about the “expression of the apoptosis-related protein cleaved caspase 3” value (cleaved caspase 3) of the same substance?
**A.** Its value is “inhibited”.

**Q.** What about the “microstructure of LSECs (electron microscopic images)” value [2] of the same substance?
**A.** Its value is “undercoat structure of LSECs was maintained”.
